According to the supplement of paper PMC12420376:

Assays:
KURAMOCHI = assay: drug sensitivity score (DSS2) on cancer cell count; higher = more sensitive; extreme values may be limits of the assay; details: 72 h
How it was run: (§1)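 Ovarian cancer cells grown alone or 1:1 with lung or skin fibroblasts in direct co-culture were treated for 72 h on 384-well plates carrying 528 approved and investigational compounds at 5 concentrations. Fixed cells were stained for CK8/18 with Hoechst and imaged to count cancer cells. A drug sensitivity score was then derived in Breeze from logistic curve fits.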

OVCAR8 = assay: as above; details: 72 h
How it was run: as §1

[1] = co-cultured fibroblast: BJHTERT
[2] = co-cultured fibroblast: none (monoculture)

Compound	drug sensitivity score (KURAMOCHI; [1]) [DSS]	drug sensitivity score (KURAMOCHI; co-cultured fibroblast: WI38) [DSS]	drug sensitivity score (KURAMOCHI; [2]) [DSS]	drug sensitivity score (OVCAR8; [1]) [DSS]	drug sensitivity score (OVCAR8; co-cultured fibroblast: WI38) [DSS]	drug sensitivity score (OVCAR8; [2]) [DSS]
Oc1ccc2c(c1)CC[C@H](c1ccccc1)[C@@H]2c1ccc(OCCN2CCCC2)cc1 [Lasofoxifene]	0	0	0	0	5.5	0
Nc1cccc2c1CN(C1CCC(=O)NC1=O)C2=O (stereo not drawn) [Lenalidomide]	0.1	2.6	10.7	0	0	1.8
COc1cc2nccc(Oc3ccc(NC(=O)NC4CC4)c(Cl)c3)c2cc1C(N)=O [Lenvatinib]	0.2	0	0	0	0	0.7
N#Cc1ccc(C(c2ccc(C#N)cc2)n2cncn2)cc1 [Letrozole]	0	0	0	0	0	0
Cc1ccc(F)c(NC(=O)Nc2ccc(-c3cccc4[nH]nc(N)c34)cc2)c1 [Linifanib]	0	0	0	0	0	0.5
C[C@]1(O)C[C@@H](c2nc(-c3ccc4ccc(-c5ccccc5)nc4c3)c3c(N)nccn32)C1 [Linsitinib]	0	0	0	0	0	1.7
CCNCCS(=O)(=O)NC[C@@]1(c2ccccc2)SC(NC(=O)C(C)(C)C)=NN1C(=O)C(C)(C)C [Litronesib]	19.2	22.8	12.2	27.8	28.8	27
Nc1nc(OCc2cc(Br)cs2)c2[nH]cnc2n1 [Lomeguatrib]	0	0	0	0	0.8	0
NC(=O)N1CCC(CC(=O)N2CCC([C@H]3c4ncc(Br)cc4CCc4cc(Cl)cc(Br)c43)CC2)CC1 [Lonafarnib]	13	13.9	13.2	14.5	4.9	10.3
Cc1c(F)cc(C(=O)NC2CC2)cc1-c1ccc(C(=O)NCC(C)(C)C)cn1 [Losmapimod]	2.4	0	0	0.7	0	1.5
CC[C@H](C)C(=O)O[C@H]1C[C@@H](C)C=C2C=C[C@H](C)[C@H](CC[C@@H]3C[C@@H](O)CC(=O)O3)[C@H]21 [Lovastatin]	0.3	3.4	5.4	1.7	8.4	2.1
CNC(=O)c1cccc2cc(Oc3ccnc4cc(OCC5(N)CC5)c(OC)cc34)ccc12 [Lucitanib]	4.3	4.3	2.4	3.3	6	3.4
CCNC(=O)c1noc(-c2cc(C(C)C)c(O)cc2O)c1-c1ccc(CN2CCOCC2)cc1 [Luminespib]	19.7	20.9	22.9	28.3	29.8	29.9
O=C(O)CC[C@H]1CC[C@@](c2cc(F)ccc2F)(S(=O)(=O)c2ccc(Cl)cc2)CC1 [MK-0752]	0	0	0	3.7	0	0
NC1(c2ccc(-c3nc4ccn5c(=O)[nH]nc5c4cc3-c3ccccc3)cc2)CCC1 [MK-2206]	5.8	1.4	16.1	0.2	0	0.3
O=C(c1cccc(Cl)c1F)N1CCN(Cc2cccc(Nc3nccs3)n2)CC1 [MK-8745]	11.8	14.3	13.4	12.5	14.3	13.9
Cn1cc(-c2cnn3c(N)c(Br)c([C@@H]4CCCNC4)nc23)cn1 [MK-8776]	1.2	0	1.6	7.8	0.2	0
Cc1cnc(-c2ccccc2C(C)C)nc1NCc1ccc(-n2ccnn2)cc1 [ML323]	0	1.3	1.9	2.9	0	3.8
O=C(CCNC(=O)c1ccc(OC(F)(F)F)cc1)N[C@@H]1CCCc2ccccc21 [ML390]	3.4	2.9	4	8.5	0	8.1
O=C(Nc1cccc(NC(=O)c2cccc(O)c2O)c1)c1cccc(O)c1O [MST-312]	12	9.8	15.1	10.9	15.4	18.1
CNC(=O)[C@@H](NC(=O)[C@H](CC(C)C)[C@H](O)C(=O)NO)C(C)(C)C [Marimastat]	0	0	0	0.2	1.4	0.7
Cc1ccc(NC(=O)c2ccc(CN3CCN(C)CC3)cc2)cc1Nc1nc(-c2cccnc2)cs1 [Masitinib]	2	1.6	0	3.9	0.2	0.2
CC(=O)O[C@]1(C(C)=O)CC[C@H]2[C@@H]3C=C(C)C4=CC(=O)CC[C@]4(C)[C@H]3CC[C@@]21C [Megestrol acetate]	0	6	0	0	0	0
CCN(CC)CCCC(C)Nc1c2ccc(Cl)cc2nc2ccc(OC)cc12 (stereo not drawn) [Mepacrine]	13.8	13.8	19.1	19.8	14.2	14.4
S=c1[nH]cnc2nc[nH]c12 [Mercaptopurine]	0.1	0.3	0	0	0	5.4
Cc1ccc(C(=O)Nc2ccc(Oc3cc4cnn(C)c4cc3-c3cn[nH]c3)c(F)c2)c(=O)n1-c1ccc(F)cc1 [Merestinib]	0	1.5	1.5	0	0	0.1
CN(C)C(=N)NC(=N)N [Metformin]	0	0	0	0	0	0

Compound	drug sensitivity score (KURAMOCHI; [1]) [DSS]	drug sensitivity score (KURAMOCHI; co-cultured fibroblast: WI38) [DSS]	drug sensitivity score (KURAMOCHI; [2]) [DSS]	drug sensitivity score (OVCAR8; [1]) [DSS]	drug sensitivity score (OVCAR8; co-cultured fibroblast: WI38) [DSS]	drug sensitivity score (OVCAR8; [2]) [DSS]
CN(Cc1cnc2nc(N)nc(N)c2n1)c1ccc(C(=O)N[C@@H](CCC(=O)O)C(=O)O)cc1 [Methotrexate]	5.9	0	19.7	12.3	12.4	27.7
C[C@H]1C[C@@H]2[C@H]([C@@H](O)C[C@@]3(C)[C@H]2CC[C@]3(O)C(=O)CO)[C@@]2(C)C=CC(=O)C=C12 [Methylprednisolone]	0	0	9.8	0	0	8.1
CO[C@@H]1[C@H](N(C)C(=O)c2ccccc2)C[C@H]2O[C@]1(C)n1c3ccccc3c3c4c(c5c6ccccc6n2c5c31)C(=O)NC4 [Midostaurin]	16.2	14.8	11.6	13.3	16.5	13
CNC(=O)c1nn(C)c2c1C(C)(C)Cc1cnc(Nc3ccc(N4CCN(C)CC4)cc3)nc1-2 [Milciclib]	11.2	9.8	10	13.9	12.3	11.4
CCCCCCCCCCCCCCCCOP(=O)([O-])OCC[N+](C)(C)C [Miltefosine]	4.4	7.4	5	8.4	7.3	5.7
CO[C@@]12[C@H](COC(N)=O)C3=C(C(=O)C(C)=C(N)C3=O)N1C[C@@H]1N[C@@H]12 [Mitomycin C]	0	0	12.4	4.2	0.8	3.1
Clc1ccc(C(c2ccccc2Cl)C(Cl)Cl)cc1 (stereo not drawn) [Mitotane]	0	0	0	0	0	0
O=C1c2c(O)ccc(O)c2C(=O)c2c(NCCNCCO)ccc(NCCNCCO)c21 [Mitoxantrone]	17.1	13.3	23.6	20.4	17	18.1
CCS(=O)(=O)Nc1ccc(Oc2ccc(F)cc2F)c(-c2cn(C)c(=O)c3[nH]ccc23)c1 [Mivebresib]	22.6	21.7	17.5	35.4	26.9	30.9
Nc1ccccc1NC(=O)c1ccc(CNc2nccc(-c3cccnc3)n2)cc1 [Mocetinostat]	10.4	13.9	13.7	14	19.3	21.7
CCNC(=O)C[C@@H]1N=C(c2ccc(Cl)cc2)c2cc(OC)ccc2-n2c(C)nnc21 [Molibresib]	6.5	9.9	6.7	12.2	5.8	13.6
N#CCNC(=O)c1ccc(-c2ccnc(Nc3ccc(N4CCOCC4)cc3)n2)cc1 [Momelotinib]	7.5	10.1	7.6	11.3	10.9	10.1
CC1(C)CNc2cc(NC(=O)c3cccnc3NCc3ccncc3)ccc21 [Motesanib]	0.3	0.2	0	0	1	2
CCCN(CCC)C(=O)C1=Cc2ccc(-c3ccc(C(=O)N4CCCC4)cc3)cc2N=C(N)C1 [Motolimod]	1.3	0	1	0	0	2.4
FC(F)(F)c1ccc(/C=C/c2nc(COc3ccc(CCCCn4ccnn4)cc3)co2)cc1 [Mubritinib]	5.6	0	0	16.9	0	5.5
Cc1cc(OCc2nnc(SC3CCCC3)n2-c2cccnc2)ccc1-c1ccc(S(C)(=O)=O)cc1 [NMS-873]	9	9	8.9	5.8	4.7	10.3
COc1ccc(-c2ccc3ncc4c(c3c2)n(-c2ccc(N3CCNCC3)c(C(F)(F)F)c2)c(=O)n4C)cn1 [NVP-BGT226]	18.2	19.5	18.3	19.5	12	21.7
Cc1ccc(C(=O)Nc2cccc(C(F)(F)F)c2)cc1Nc1nc(-c2cccnc2)nc2c1cnn2C [NVP-BHG712]	5.8	6.7	8.9	0	6.8	7.5
COc1cc2c(cc1OC(C)C)[C@H](c1ccc(Cl)cc1)N(c1ccc(N(C)C[C@H]3CC[C@H](N4CCN(C)C(=O)C4)CC3)cc1)C(=O)C2 [NVP-CGM097]	7.7	3.4	5.4	10.1	11.1	3.5
CN[C@@H](C)C(=O)N[C@H](C(=O)N1CCC[C@H]1c1nc(C(=O)c2ccc(F)cc2)cs1)C1CCCCC1 [NVP-LCL161]	4	1.9	2.5	34.7	27.7	23.2
Cn1c(Nc2ccc(C(F)(F)F)cc2)nc2cc(Oc3ccnc(-c4ncc(C(F)(F)F)[nH]4)c3)ccc21 [NVP-RAF265]	2.2	0.8	7.6	2.2	0	3.2
CC1(C)CCC(c2ccc(Cl)cc2)=C(CN2CCN(c3ccc(C(=O)NS(=O)(=O)c4ccc(N[C@H](CCN5CCOCC5)CSc5ccccc5)c(S(=O)(=O)C(F)(F)F)c4)cc3)CC2)C1 [Navitoclax]	2.4	3.1	1.1	7.5	0	0.3
CN1C(=O)N[C@H](Cc2c[nH]c3c(Cl)cccc23)C1=O [Necrostatin 2]	0	0	0	0	0	0
O=c1ncn2nc(Sc3ccc(F)cc3F)ccc2c1-c1c(Cl)cccc1Cl [Neflamapimod]	9.1	0.7	14.9	0	0	0.3
COc1nc(N)nc2c1ncn2[C@@H]1O[C@H](CO)[C@@H](O)[C@@H]1O [Nelarabine]	0	0	0	1	3.4	0.3
CCOc1cc2ncc(C#N)c(Nc3ccc(OCc4ccccn4)c(Cl)c3)c2cc1NC(=O)/C=C/CN(C)C [Neratinib]	9	3.6	1.4	7	3	6
